Measured values published in patent US20080051413A1, “Nitrophenylpiperazine derivative of xanthine which relaxes tracheal airway and increases respiratory performance” (KAOHSIUNG MEDICAL UNIVERSITY, priority 2006, published 2008).

Columns and labels:
[1] = system: cultured guinea pig tracheal smooth muscle cells; test: Expression of PKA and PKG (Western blot); type: cell-based
Method: Cell Culture of Tracheal Smooth Muscle: Guinea pigs (350-450 g) were injected i.p. with a lethal dose of pentobarbital. The tracheas were excised and cut longitudinally through the cartilage. Using a dissecting microscope, TSM strips were dissected from the surrounding parentchyma. The epithelium was removed from the luminal surface, and bands of TSM were gently separated from the underlying connective tissue. Then TSM strips were chopped into small sections (1 mm^3) and incubated in Hanks' balanced salt solution (138 mM NaCl, 4 mM NaHCO3, 5 mM KCl, 0.3 mM KH2PO4, 0.3 mM Na2HPO4, and 1.0 mM glucose) with 0.05% elastase type IV and 0.2% collagenase type IV (Invitrogen, Carlsbad, Calif.) for 30 min at 37_ with gentle shaking. The solution of dissociated smooth muscle cells was centrifuged (6 min at 500 g), and the pellet was resuspended in 1:1 Dulbecco's modified Eagle's medium/Ham's F-12 medium supplemented with 10% fetal bovine serum, 0.244% NaHCO3, and 1% penicillin/streptomycin. Cells were cultured in 25-cm^2 flasks at 37_ in humidified air containing 5% CO2. Confluent cells were detached with 0.25% trypsin-0.02% EDTA at 37_and then subcultured to establish secondary cultures. Cultures were maintained for no more than four passages. They were identified as smooth muscle cells by the typical hill-and-valley appearance, and cellular homogeneity was further confirmed by the presence of smooth muscle specific _-myosin and _-actin immunoreactivity. Indirect immunofluorescence staining for a variety of antigens was carried out by first plating the cells on chamber slides, fixing the cells in 3.7% formaldehyde-phosphate-buffered saline for 10 min, and permeabilizing the cells with phosphate-buffered saline and 0.1% Triton X-100. Cells were then stained with either a mouse monoclonal antibody directed against the amino-terminal 10 amino acids of _-smooth muscle actin or _-myosin (Roche Diagnostics, Indianapolis, Ind.). All cells were stained with fluorescein-labeled goat anti-mouse IgG antibody (Roche Diagnostics).
Expression of PKA and PKG: The expression of PKA and PKG was determined by Western blot as previously described by Wu et al. and Murthy et al. (Wu B N, Lin R J, Lo Y C, Shen K P, Wang C C, Lin Y T, and Chen I J (2004) KMUP-1, a xanthine derivatives, induces relaxation of guinea-pig isolated trachea: the role of the epithelium, cyclic nucleotides and K^+ channels. Br J Pharmacol 142:1105-1114; Murthy K S, Zhou H, and Makhlouf G M (2002) PKA-dependent activation of PDE3A and PDE4 and inhibition of adenylyl cyclase V/VI in smooth muscle. Am J Physiol 282:C508-C517). Guinea pig TSMCs were incubated with KMUP-3 for 30 min. Each of the cell lysates, each containing 1 _g of cellular protein, was electrophoresed in 7.5% SDS-polyacrylamide gel electrophoresis and then transferred to polyvinylidene diflouride membrane (Millipore Corporation, Billerica, Mass.). The membrane was stained with Ponceau S to verify the integrity of the transferred proteins and to monitor the unbiased transfer of all protein samples. The membrane was then washed with 25 ml of TBS (100 mM NaCl, 0.1% and 10 mM Tris-HCl, pH 7.5) for 5 min at room temperature and incubated in 25 ml of blocking buffer (TBS plus 0.1% Tween 20 and 5% nonfat milk) overnight at 4_. In the measurement of protein, the membrane was incubated with appropriate PKARI or PKA1—1— primary antibody (diluted 1:250) in 2 ml of blocking buffer for 1 h at room temperature, washed three times for 5 min each with 15 ml of Tris-buffered saline/Tween 20 (TBS plus 0.1% Tween 20), incubated with horseradish peroxidase-conjugated secondary antibody (1:10,000) in 15 ml of blocking buffer with gentle agitation for 1 h at room temperature, and finally washed three times for 5 min each time with 15 ml of Tris-buffered saline/Tween 20. The membrane was then subjected to enhanced chemiluminescence (GE Healthcare) for the detection of the specific antigen.

[2] = target: T1, PDE3 purified from human platelets (Homo sapiens, UniProt Q14432); test: Phosphodiesterase activity, PDE3; type: biochemical; conditions: 10 _M compound, n = 3
T1 construct: PDE3 and PDE5 purified from human platelets; from tissue; host or cells: human platelets
T1 sequence (Q14432 whole entry): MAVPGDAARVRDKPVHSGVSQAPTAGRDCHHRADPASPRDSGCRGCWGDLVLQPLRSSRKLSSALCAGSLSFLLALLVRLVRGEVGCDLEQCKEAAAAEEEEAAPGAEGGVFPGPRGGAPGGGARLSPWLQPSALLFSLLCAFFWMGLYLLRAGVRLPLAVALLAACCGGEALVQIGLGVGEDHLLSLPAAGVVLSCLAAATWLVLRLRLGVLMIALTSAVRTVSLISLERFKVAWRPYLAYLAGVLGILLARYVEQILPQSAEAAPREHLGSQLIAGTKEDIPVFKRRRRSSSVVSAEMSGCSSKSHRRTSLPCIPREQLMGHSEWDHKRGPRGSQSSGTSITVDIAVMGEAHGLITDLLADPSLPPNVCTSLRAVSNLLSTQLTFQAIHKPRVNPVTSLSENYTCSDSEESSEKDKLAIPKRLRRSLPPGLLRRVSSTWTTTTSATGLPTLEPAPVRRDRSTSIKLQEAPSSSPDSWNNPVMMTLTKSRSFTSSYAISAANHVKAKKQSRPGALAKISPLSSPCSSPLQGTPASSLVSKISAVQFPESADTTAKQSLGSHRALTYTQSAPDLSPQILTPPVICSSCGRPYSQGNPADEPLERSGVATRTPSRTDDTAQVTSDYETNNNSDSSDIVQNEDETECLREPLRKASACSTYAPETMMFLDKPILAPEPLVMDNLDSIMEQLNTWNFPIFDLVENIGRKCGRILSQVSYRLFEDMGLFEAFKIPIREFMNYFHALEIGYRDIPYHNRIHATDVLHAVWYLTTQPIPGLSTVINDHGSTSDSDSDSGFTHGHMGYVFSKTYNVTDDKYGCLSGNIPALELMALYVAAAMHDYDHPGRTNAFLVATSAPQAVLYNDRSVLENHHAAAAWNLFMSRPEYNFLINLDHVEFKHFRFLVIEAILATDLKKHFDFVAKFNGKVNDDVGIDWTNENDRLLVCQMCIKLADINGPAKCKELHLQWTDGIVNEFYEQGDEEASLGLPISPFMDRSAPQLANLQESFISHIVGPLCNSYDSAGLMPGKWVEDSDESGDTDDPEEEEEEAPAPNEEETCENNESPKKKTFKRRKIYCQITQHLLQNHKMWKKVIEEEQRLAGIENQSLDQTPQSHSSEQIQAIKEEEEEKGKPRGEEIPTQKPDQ
Method: PDE3 and PDE5 purified from human platelets and PDE4 purified from human U-937 pronocytic cells were used. Test compound (10 _M) or vehicle was incubated with 0.2 _g of enzyme and 1 _M cAMP containing 0.01 _M [^3H]cAMP in Tris buffer, pH 7.5, for 20 min at 25_. The reaction was terminated by boiling for 2 min, and the resulting cAMP was converted to adenosine by the addition of 10 mg/ml snake venom nucleotidase, which is followed by a further incubation at 37_for 10 min. Unhydrolyzed cAMP was bound to AG1-X2 resin, and the remaining [^3H]adenosine in the aqueous phase was quantitated by scintillation counting.

Cn1c(=O)c2c(ncn2CCN2CCN(c3ccc([N+](=O)[O-])cc3)CC2)n(C)c1=O [KMUP-3]
expression of PKA1—1— (FIG. 7(B)) ([1]; 1 _M, 30 min): increased the expression of PKA1—1— | expression of immunoreactive PKARI protein (FIG. 7(A)) ([1]; 1 _M, 30 min): increased the expression of PKARI | PKG protein after ODQ pretreatment ([1]; ODQ (10_M) 30 min prior to compound (1 _M)): significantly reduced | PKA protein expression after ODQ pretreatment ([1]; ODQ (10 _M) 30 min prior to compound, unpublished data): did not significantly affect | expression of PKARI after SQ 22536 pretreatment ([1]; SQ 22536 (100 _M) 30 min prior to compound (1 _M)): attenuated | PDE3 inhibition [2]: 55 ± 2.5 %
